# Measurements as given in BindingDB's records for doi:10.1021/acs.jmedchem.7b00484 (University of Strathclyde, 2017).
# Target: T1, Inhibitor of nuclear factor kappa-B kinase subunit beta (Homo sapiens, UniProt O14920)
# T1 sequence (O14920 whole entry): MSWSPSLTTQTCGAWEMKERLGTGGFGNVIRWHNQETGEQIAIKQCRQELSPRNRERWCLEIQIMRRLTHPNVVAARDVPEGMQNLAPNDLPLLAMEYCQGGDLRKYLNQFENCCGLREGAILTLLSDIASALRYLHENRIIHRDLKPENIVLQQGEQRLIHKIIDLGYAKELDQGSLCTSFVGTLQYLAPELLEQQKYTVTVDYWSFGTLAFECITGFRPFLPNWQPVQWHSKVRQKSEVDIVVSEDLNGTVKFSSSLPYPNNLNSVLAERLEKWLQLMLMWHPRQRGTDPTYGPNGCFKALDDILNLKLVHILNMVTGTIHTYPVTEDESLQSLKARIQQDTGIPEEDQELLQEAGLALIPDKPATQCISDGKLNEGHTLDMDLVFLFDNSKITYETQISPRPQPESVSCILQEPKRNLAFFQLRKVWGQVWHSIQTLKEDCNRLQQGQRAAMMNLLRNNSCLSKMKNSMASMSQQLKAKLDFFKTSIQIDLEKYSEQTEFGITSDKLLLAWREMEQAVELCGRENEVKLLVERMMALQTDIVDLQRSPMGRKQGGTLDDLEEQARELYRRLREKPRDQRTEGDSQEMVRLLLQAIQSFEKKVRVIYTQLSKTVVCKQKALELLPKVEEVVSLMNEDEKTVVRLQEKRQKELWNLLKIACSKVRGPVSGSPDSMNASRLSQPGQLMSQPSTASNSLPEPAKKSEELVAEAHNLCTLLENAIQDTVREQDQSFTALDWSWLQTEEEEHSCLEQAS
# Assay: ChEBML_1690031
# Description: Inhibition of recombinant full length human IKKbeta expressed in baculovirus infected sf9 insect cells using biotinylated IkBalpha as substrate after 60 mins by DELFIA
smiles,measurement,value
N#Cc1c[nH]c2nc(N)nc(N[C@@H]3CC[C@@H](O)[C@H]3O)c12,Ki,> 30 µM
